Take `*=CC1CC(C=*)C2C(=O)N(C34CC5CC(CC(C5)C3)C4)C(=O)C12` (repeat unit): the CH4 permeability stood at 0.58 Barrer, the CO2 permeability was 8.39 Barrer, the H2 permeability was 12.8 Barrer and the N2 permeability was found to be 0.5 Barrer. The O2 permeability stood at 1.59 Barrer.
`*CC(CCl)O*` (repeat unit): the H2 permeability is 8.9 Barrer, the N2 permeability came out at 0.44 Barrer and the O2 permeability came out at 1.05 Barrer.
In turn, `*c1cccc(Oc2ccc(C(c3ccc(Oc4cccc(N5C(=O)c6ccc(C(c7ccc8c(c7)C(=O)N(*)C8=O)(C(F)(F)F)C(F)(F)F)cc6C5=O)c4)cc3)(C(F)(F)F)C(F)(F)F)cc2)c1` (repeat unit) gave a CH4 permeability of 0.136 Barrer, a CO2 permeability of 6 Barrer, an H2 permeability of 21 Barrer and an N2 permeability of 0.241 Barrer. The O2 permeability worked out at 1.35 Barrer.
`*c1ccc(Sc2ccc(N3C(=O)c4ccc(-c5ccc6c(c5)C(=O)N(*)C6=O)cc4C3=O)cc2)cc1` (repeat unit) had a CH4 permeability of 0.0164 Barrer, a CO2 permeability of 0.774 Barrer and an N2 permeability of 0.022 Barrer.
Consider `*c1ccc(Oc2ccc3ccccc3c2-c2c(Oc3ccc(N4C(=O)c5ccc(C(c6ccc7c(c6)C(=O)N(*)C7=O)(C(F)(F)F)C(F)(F)F)cc5C4=O)cc3C(F)(F)F)ccc3ccccc23)c(C(F)(F)F)c1` (repeat unit), for which the CH4 permeability stood at 0.41 Barrer, the CO2 permeability came to 25.9 Barrer, the H2 permeability came out at 36.8 Barrer and the N2 permeability was 0.78 Barrer. The compound also had an O2 permeability of 4.89 Barrer.
With `*c1cccc(-c2nc3cc(-c4ccc5[nH]c(*)nc5c4)ccc3[nH]2)n1` (repeat unit), the H2 permeability was 1.38 Barrer and the O2 permeability amounted to 0.045 Barrer.
Consider `*Oc1ccc(S(=O)(=O)c2ccc(Oc3ccc(C4(c5ccc(*)c(C)c5)CCCCC4)cc3C)cc2)cc1` (repeat unit), for which the CH4 permeability was 0.0393 Barrer, the CO2 permeability amounted to 1.4 Barrer, the N2 permeability came out at 0.0569 Barrer and the O2 permeability came to 0.41 Barrer.
Take `*c1cc2c(cc1C)-c1cc(C)c(N3C(=O)c4ccc(-c5ccc6c(c5)C(=O)N(*)C6=O)cc4C3=O)cc1S2(=O)=O` (repeat unit): the CH4 permeability stood at 0.037 Barrer, the CO2 permeability came to 2.74 Barrer, the N2 permeability amounted to 0.0763 Barrer and the O2 permeability worked out at 0.577 Barrer.
Taken in the same sequence, the figures for `*c1cccc(C(c2cccc(N3C(=O)c4ccc(C(c5ccc6c(c5)C(=O)N(*)C6=O)(C(F)(F)F)C(F)(F)F)cc4C3=O)c2)(C(F)(F)F)C(F)(F)F)c1` (repeat unit) were 0.08 Barrer, 5.1 Barrer, 0.261 Barrer and 1.8 Barrer.
With `*Oc1ccc(S(=O)(=O)c2ccc(Oc3c(C)cc(Cc4cc(C)c(*)c(C)c4)cc3C)cc2)cc1` (repeat unit), the CH4 permeability turned out to be 0.577 Barrer, the CO2 permeability turned out to be 15 Barrer, the H2 permeability came to 34.5 Barrer and the N2 permeability came out at 0.611 Barrer. Besides, the O2 permeability was determined as 3.3 Barrer.
The compound `*c1ccc(Oc2cc3c(cc2C)OC2(CC3(C)C)CC(C)(C)c3cc(Oc4ccc(*)cc4)c(C)cc3O2)cc1` (repeat unit) yielded a CH4 permeability of 0.77 Barrer, a CO2 permeability of 29.3 Barrer, an N2 permeability of 1.33 Barrer and an O2 permeability of 6.17 Barrer.
The compound `*Oc1ccc(C(C)(C)c2ccc(Oc3ccc(S(=O)(=O)c4ccc(*)cc4)cc3)cc2)cc1` (repeat unit) registered a CH4 permeability of 0.25 Barrer, a CO2 permeability of 5.6 Barrer, an H2 permeability of 14 Barrer and an N2 permeability of 0.25 Barrer. The compound also returned an O2 permeability of 1.4 Barrer.
`*C(=O)c1ccc(C2(c3ccc(C(=O)c4ccc(Oc5ccc(C(=O)c6ccc(Oc7ccc(*)cc7)cc6)cc5)cc4)cc3)OC(=O)c3ccccc32)cc1` (repeat unit): the CH4 permeability worked out at 0.1 Barrer, the CO2 permeability came to 3.1 Barrer, the H2 permeability was found to be 9.2 Barrer and the N2 permeability came out at 0.0986 Barrer. This compound returned an O2 permeability of 0.68 Barrer.
In the same order, the values of `*Oc1cc(C)c(C2(c3cc(C)c(Oc4ccc(S(=O)(=O)c5ccc(*)cc5)cc4)cc3C)OC(=O)c3ccccc32)cc1C` (repeat unit) are 0.225 Barrer, 7.69 Barrer, 16.9 Barrer, 0.21 Barrer and 1.55 Barrer.
In the same order, the values of `*c1ccc2c(-c3c(O)ccc4cc(N5C(=O)c6ccc(C(c7ccc8c(c7)C(=O)N(*)C8=O)(C(F)(F)F)C(F)(F)F)cc6C5=O)ccc34)c(O)ccc2c1` (repeat unit) are 0.09 Barrer, 4.32 Barrer, 5.95 Barrer, 0.14 Barrer and 0.98 Barrer.
Taken in the same sequence, the figures for `*C(=C(*)c1ccc2c(c1)C(C)(C)CC2(C)C)c1ccc(F)cc1` (repeat unit) were 34300 Barrer, 47000 Barrer, 33300 Barrer, 15600 Barrer and 17900 Barrer.
`*c1ccc2c(c1)C(=O)n1c-2nc2ccc(-c3ccc4c(c3)nc3n4C(=O)c4ccc(C(*)(C(F)(F)F)C(F)(F)F)cc4-3)cc21` (repeat unit): the H2 permeability came to 74.4 Barrer, the N2 permeability turned out to be 1.44 Barrer and the O2 permeability came out at 7.75 Barrer.
Turning to `*Nc1ccc(S(=O)(=O)c2ccc(NC(=O)c3cc(C(*)=O)cc(-c4ccccc4)c3)cc2)cc1` (repeat unit), the CH4 permeability was 0.11 Barrer, the CO2 permeability was 3.2 Barrer, the H2 permeability came to 7.6 Barrer and the N2 permeability stood at 0.13 Barrer. Further, the O2 permeability came to 0.75 Barrer.
Compound `*CCO*` (repeat unit) gave a CH4 permeability of 4.85 Barrer, a CO2 permeability of 40.5 Barrer, an H2 permeability of 6.9 Barrer and an N2 permeability of 1.32 Barrer. This compound also returned an O2 permeability of 4.34 Barrer.
`*CC(O)C*` (repeat unit) yielded a CH4 permeability of 0.019 Barrer, a CO2 permeability of 0.4 Barrer, an N2 permeability of 0.015 Barrer and an O2 permeability of 0.1 Barrer.
Compound `*[Si](C)(C)CCCCCC[Si](*)(C)C` (repeat unit) had an N2 permeability of 81 Barrer and an O2 permeability of 182 Barrer.
`*Oc1ccc(-c2ccc(Oc3ccc(S(=O)(=O)c4ccc(*)cc4)cc3)cc2)cc1` (repeat unit): the CH4 permeability is 0.25 Barrer, the CO2 permeability was 5.6 Barrer, the H2 permeability is 28 Barrer and the N2 permeability stood at 0.24 Barrer. For the same compound, the O2 permeability is 1.3 Barrer.
Taken in the same sequence, the figures for `*c1ccc2c(c1)C1c3ccccc3C2c2cc(N3C(=O)c4ccc(C(c5ccc6c(c5)C(=O)N(*)C6=O)(C(F)(F)F)C(F)(F)F)cc4C3=O)ccc21` (repeat unit) were 7.2 Barrer, 202 Barrer, 329 Barrer, 10.7 Barrer and 43.9 Barrer.
In the same order, the values of `*C1C(*)C2CC1C1CC([Si](C)(C)C)C21` (repeat unit) are 1010 Barrer, 5300 Barrer, 2060 Barrer, 390 Barrer and 990 Barrer.
Regarding `*O[Si](*)(C)CCC(F)(F)F` (repeat unit), the CH4 permeability stood at 201 Barrer, the CO2 permeability turned out to be 1390 Barrer, the N2 permeability was determined as 88.3 Barrer and the O2 permeability was found to be 200 Barrer.
Taken in the same sequence, the figures for `*OC(=O)c1cccc(C(=O)Oc2ccc(C(C)(C)c3ccc(O*)c(C)c3)cc2C)c1` (repeat unit) were 0.044 Barrer, 2.5 Barrer, 0.076 Barrer and 0.46 Barrer.
Compound `*c1ccc(Oc2ccc(C(c3ccc(Oc4ccc(-n5c(=O)c6cc7c(=O)n(*)c(=O)c7cc6c5=O)cc4C(F)(F)F)cc3)(C(F)(F)F)C(F)(F)F)cc2)c(C(F)(F)F)c1` (repeat unit) had a CH4 permeability of 0.937 Barrer, a CO2 permeability of 24.6 Barrer, an H2 permeability of 50.4 Barrer and an N2 permeability of 1.5 Barrer. Besides, the O2 permeability is 7.06 Barrer.
With `*Oc1ccc(S(=O)(=O)c2ccc(Oc3c(C)cc(C(C)(C)c4cc(C)c(*)c(C)c4)cc3C)cc2C(O)(C(F)(F)F)C(F)(F)F)c(C(O)(C(F)(F)F)C(F)(F)F)c1` (repeat unit), the CO2 permeability is 30 Barrer, the N2 permeability was determined as 1.5 Barrer and the O2 permeability was found to be 8.5 Barrer.
`*c1ccc(-c2ccc(C(*)(c3ccccc3)C(F)(F)F)cc2)cc1` (repeat unit) registered a CH4 permeability of 10 Barrer, a CO2 permeability of 166 Barrer, an H2 permeability of 114 Barrer and an N2 permeability of 6.6 Barrer. This compound also came in with an O2 permeability of 25 Barrer.
As to `*N=P(*)(C)C` (repeat unit), the CO2 permeability was 29.4 Barrer, the N2 permeability came to 1.27 Barrer and the O2 permeability was 3.53 Barrer.
`*/C(C)=C(/*)c1ccc([Si](C)(C)C)cc1` (repeat unit) gave a CH4 permeability of 200 Barrer, a CO2 permeability of 950 Barrer, an H2 permeability of 510 Barrer and an N2 permeability of 100 Barrer. Besides, the O2 permeability was 240 Barrer.
Taken in the same sequence, the figures for `*Nc1ccc(C(c2ccc(NC(=O)c3cc(C(*)=O)cc(-c4ccccc4)c3)cc2)(C(F)(F)F)C(F)(F)F)cc1` (repeat unit) were 0.78 Barrer, 21 Barrer, 42 Barrer, 1.2 Barrer and 5.5 Barrer.
Compound `*C(=C(*)c1ccccc1)c1ccccc1` (repeat unit) gave a CH4 permeability of 3700 Barrer, a CO2 permeability of 6600 Barrer, an N2 permeability of 2720 Barrer and an O2 permeability of 3600 Barrer.
With `*C(=C(*)c1ccc(C(C)C)cc1)c1ccccc1` (repeat unit), the CO2 permeability was determined as 1100 Barrer, the N2 permeability came out at 150 Barrer and the O2 permeability stood at 300 Barrer.
In turn, `*Oc1c(C)cc(*)cc1C` (repeat unit) yielded a CH4 permeability of 4.1 Barrer, a CO2 permeability of 66 Barrer, an H2 permeability of 68.7 Barrer and an N2 permeability of 3.5 Barrer. In addition, the O2 permeability came out at 14.6 Barrer.
